Assay results from publication PMC8532448, “Drug target inference by mining transcriptional data using a novel graph convolutional network framework” (Protein & Cell, 2021).

Biological target: Cyclophilin A (CYPA, PPIA) (Homo sapiens, UniProt P62937)
Assay: SPR with purified CYPA; also protein thermal shift (destabilization) and chymotrypsin-coupled PPIase inhibition
Assay type: binding

Sequence of Cyclophilin A (CYPA, PPIA) (P62937 whole entry): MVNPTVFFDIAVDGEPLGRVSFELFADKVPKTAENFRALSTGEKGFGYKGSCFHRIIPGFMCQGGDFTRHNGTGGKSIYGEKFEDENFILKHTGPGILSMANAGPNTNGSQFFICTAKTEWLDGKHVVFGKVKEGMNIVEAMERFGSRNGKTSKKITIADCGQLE

Kd: 0.94 µM
Structure (SMILES): Cc1c(O)cccc1C(=O)N[C@@H](CSc1ccccc1)[C@H](O)CN1C[C@H]2CCCC[C@H]2C[C@H]1C(=O)NC(C)(C)C [NFV, Nelfinavir]
